Earlier results on three molecules are cited in patent US20110002851A1, “Cationic Colloidal Carriers for Delivery of Active Agents to the Blood-Brain Barrier in the Course of Neuroinflammatory Diseases” (MediGene AG, priority 2006, published 2011).

One data set concerns T cell. The settings on record: micellar paclitaxel formulation.
Another data set concerns MMP-9. The settings on record: LPS-stimulated astrocytes and microglia.

Turning to `CC(=O)O[C@H]1C(=O)[C@@]2(C)[C@H]([C@H](OC(=O)c3ccccc3)[C@]3(O)C[C@H](OC(=O)[C@H](O)[C@@H](NC(=O)c4ccccc4)c4ccccc4)C(C)=C1C3(C)C)[C@]1(OC(C)=O)CO[C@@H]1C[C@@H]2O` (racemic) [paclitaxel], in the data set on T cell, the T cell proliferation result is recorded as “dose-dependent suppression”.

Turning to `Cc1cn([C@H]2C[C@H](N=[N+]=[N-])[C@@H](CO)O2)c(=O)[nH]c1=O` [AZT, zidovudine], the “expression of MMP-9” value with MMP-9 is on record as “dose-dependently inhibited”.

With `CC(C)(C)NC(=O)[C@@H]1CN(Cc2cccnc2)CCN1C[C@@H](O)C[C@@H](Cc1ccccc1)C(=O)N[C@H]1c2ccccc2C[C@H]1O` [IDV, indinavir], the “expression of MMP-9” value with MMP-9 is listed as “dose-dependently inhibited”.
